Results published in US10441659B2, “Lipids for therapeutic agent delivery formulations” (Nitto Denko Corporation, priority 2012, dated 2019).

Legend:
gp46 mRNA in pHSC [1] = assay: In vitro (pHSC) gp46 knockdown by siRNA liposome formulations, qRT-PCR; assay type: cell-based; conditions: @ 20 nM
Procedure: In Vitro (pHSC, Gp46 KD @ 20 nM) Efficacy
PHSCs in 96-well plate were incubated with formulation that composed of either ionizable lipid formulation C104, ionizable lipid formulation Tu104, or combination formulations with different ratio of ionizable lipids (C104:Tu104). After 30 minutes, medium was replaced with fresh growth medium. Forty eight hours later, cells were lysed and gp46 and GAPDH mRNA levels measured by quantitative RT-PCR (TaqMan®) assay, and gp46 levels were normalized to GAPDH levels. Normalized gp46 levels were expressed as percent of mock control cells. Error bars indicate standard deviations (n=3). Results are depicted in FIG. 1.
Transfection method is same for LX-2 and pHSCs. The liposome formulations or lipoplex formulations of the description were mixed with growth medium at desired concentrations. 100 μl of the mixture was added to the cells in 96-well plate and cells were incubated for 30 min at 37° C. in the incubator with 5% CO2. After 30 min, medium was replaced with fresh growth medium. After 48 h of transfection, cells were processed using Cell-to-Ct lysis reagents (Applied Biosystems) according to the manufacturer's instructions.
HSP47 and GAPDH TaqMan®® assays and One-Step RT-PCR master mix were purchased from Applied Biosystems. Each PCR reaction contained the following composition: One-step RT-PCR mix 5 μl, TaqMan® RT enzyme mix 0.25 μl, TaqMan® gene expression assay probe (HSP47) 0.25 μl, TaqMan® gene expression assay probe (GAPDH) 0.5 μl, RNase free water 3.25 μl, Cell lysate 0.75 μl, Total volume of 10 μl. GAPDH was used as endogenous control for the relative quantification of HSP47 mRNA levels. Quantitative RT-PCR was performed in ViiA 7 realtime PCR system (Applied Biosciences). All values were normalized to the average HSP47 expression of the mock transfected cells and expressed as percentage of HSP47 expression compared to mock.

gp46 mRNA = assay: In vivo (DMNQ) efficacy, short-term liver damage model, liver gp46 mRNA; set-up: species or system male Sprague-Dawley rats; conditions: single IV dose, liver 24 h after
Procedure: In vivo activity of target formulation was evaluated in the short-term liver damage model (referred to as the Quick Model or DMNQ). In this model, the short-term liver damage induced by treatment with a hepatotoxic agent such as dimethylnitrosamine (DMN) is accompanied by the elevation of gp46 mRNA levels. To induce these changes, male Sprague-Dawley rats were injected intraperitoneally with DMN on six consecutive days. At the end of the DMN treatment period, the animals were randomized to groups based upon individual animal body weight. Formulations was administered as a single IV dose, one hour after the last injection of DMN. Twenty four hours after, liver lobes were excised and both gp46 and MRPL19 mRNA levels were determined by quantitative RT-PCR (TaqMan) assay. mRNA levels for gp46 were normalized to MRPL19 levels. Results are depicted in FIG. 4. Several combinations of ionizable:cationic lipids achieved 50% reduction in gene expression for a single, 0.5 mg per kg of animal body weight, dose of encapsulated siRNA.

gp46 mRNA in pHSC [2] = assay: In vitro (pHSC) gp46 knockdown by siRNA liposome formulations, qRT-PCR; assay type: cell-based
HepG2 cells = assay: HepG2 cytotoxicity assay (CellTiter-Glo); assay type: cell-based, human; conditions: HepG2 @ 200 nM, 48 h post formulation addition, n=3
Procedure: In Vitro Toxicology Data, In Vitro Cytotoxicity (HepG2 @ 200 nM)
HepG2 cells, an adherent cell line derived from human hepatocellular carcinoma, was cultured in MEM/EBSS (Hyclone, Logan, Utah, Cat# SH30024.01) supplemented with 10% FBS (Hyclone, Logan, Utah Cat# SH30910). HepG2 cells were seeded in 96-well Optilux black plates (BD Falcon, Cat # BD353220) at 5000 cells/well overnight. Formulations were added to each well to final indicated siRNA concentration (n=3). At 48 h post formulation addition, cell viability was determined using CellTiter-Glo Luminescent Cell Viability Assay Kit (Promega, Cat #G7572) following manufacture's instruction. Chemiluminescent signal were measured on Clarity Luminescence Microplate Reader (502-Biotek, Winooski, Vt.). Viability was calculated based on % of chemiluminescent signal in formulation treated well normalized against mock treated wells.

SMILES | in vitro (pHSC) % KD (gp46 mRNA in pHSC [1]) [% @ 20 nM] | in vitro (pHSC) % KD (gp46 mRNA in pHSC [2]; @ 50 nM) [% @ 50 nM] | other results
CCCCCCCCCCCCCC(=O)OCCN(CCOC(=O)CCCCCCCCCCCCC)C(=O)CS(=O)(=O)CCN(C)C [SO2-S104, ((2-((2-(dimethylamino)ethyl)sulfonyl)acetyl)azanediyl)bis(ethane-2,1-diyl) ditetradecanoate] | 75 |  | in vivo (rat DMNQ) % KD (gp46 mRNA; @ 0.5 mpk): 18% @ 0.5 mpk
CCCCCCCC/C=C\CCCCCCCC(=O)OCCCN(CCCOC(=O)CCCCCCC/C=C\CCCCCCCC)C(=O)CN(C)C [i-Pr- DODC, (Z)-((2-(dimethylamino)acetyl)azanediyl)bis(propane-3,1-diyl) dioleate] |  | 60 | 
CCCCCCCCCCCCCC(=O)OCCN(CCOC(=O)CCCCCCCCCCCCC)C(=O)CCCCN(C)C [Lipid C104, ((5-(dimethylamino)pentanoyl)azanediyl)bis(ethane-2,1-diyl) ditetradecanoate] | 53 |  | in vivo (rat DMNQ) % KD (gp46 mRNA; @ 0.5 mpk): 75% @ 0.5 mpk
CCCCCCCC/C=C\CCCCCCCC(=O)OCCN(CCOC(=O)CCCCCCC/C=C\CCCCCCCC)C(=O)CCN(C)C [i-Et- DODC, (Z)-((3-(dimethylamino)propanoyl)azanediyl)bis(ethane-2,1-diyl) dioleate] |  | 43 | 
CCCCCCCCCCCCCC(=O)OCCN(CCOC(=O)CCCCCCCCCCCCC)C(=O)COCCN(C)C [Lipid O104, ((2-(2-(dimethylamino)ethoxy)acetyl)azanediyl)bis(ethane-2,1-diyl) ditetradecanoate] | 55 |  | 
CCCCCCCCCCCCCC(=O)OCCN(CCOC(=O)CCCCCCCCCCCCC)C(=O)CN(C)C [i-DC, ((2-(dimethylamino)acetyl)azanediyl)bis(ethane-2,1-diyl) ditetradecanoate] |  |  | in vitro (pHSC) % KD (gp46 mRNA in pHSC [2]; @ 200 nM): 89% @ 200 nM
CCCCCCCC/C=C\CCCCCCCC(=O)OCCN(CCOC(=O)CCCCCCC/C=C\CCCCCCCC)C(=O)CN(C)C [INT-4, (Z)-((2-(dimethylamino)acetyl)azanediyl)bis(ethane-2,1-diyl) dioleate] |  | 70 | 
CCCCCCCCCCCCCC(=O)OCCN(CCOC(=O)CCCCCCCCCCCCC)C(=O)CCCN(C)C [i-Prop- DC, ((4-(dimethylamino)butanoyl)azanediyl)bis(ethane-2,1-diyl) ditetradecanoate] | 54 | 55 | 
CCCCCCCCCCCCCC(=O)OCCCN(CCCOC(=O)CCCCCCCCCCCCC)C(=O)CN(C)C [i-Pr-DC, ((2-(dimethylamino)acetyl)azanediyl)bis(propane-3,1-diyl) ditetradecanoate] |  | 53 | 
CCCC/C=C/CCCCCCCC(=O)OCCN(CCOC(=O)CCCCCCC/C=C/CCCC)C(=O)CSCCN(C)C [S104-DMO, (9Z,9′Z)-((2-((2-(dimethylamino)ethyl)thio)acetyl)azanediyl)bis(ethane-2,1-diyl) bis(tetradec-9-enoate)] |  |  | in vitro (pHSC) % KD (gp46 mRNA in pHSC [2]; @ 10 nM): 40% @ 10 nM
CCCCCCCCCCCCCC(=O)OCCN(CCOC(=O)CCCCCCCCCCCCC)C(=O)COC(=O)CCCN(C)C [HEDC- M1, ((2-((4-(dimethylamino)butanoyl)oxy)acetyl)azanediyl)bis(ethane-2,1-diyl) ditetradecanoate] | 53 |  | 
CCCCCCCC/C=C\CCCCCCCC(=O)OCCN(CCOC(=O)CCCCCCC/C=C\CCCCCCCC)C(=O)CCCCN(C)C [C104-DO, (Z)-((5-(dimethylamino)pentanoyl)azanediyl)bis(ethane-2,1-diyl) dioleate] | 32 |  | 
CCCCCCCC/C=C\CCCCCCCC(=O)OCCN(CCOC(=O)CCCCCCC/C=C\CCCCCCCC)C(=O)SCCN(C)C [TU104-DO, (Z)-((((2-(dimethylamino)ethyl)thio)carbonyl)azanediyl)bis(ethane-2,1-diyl) dioleate] | 81 |  | in vivo (rat DMNQ) % KD (gp46 mRNA; @ 0.25 mpk): 40% @ 0.25 mpk
CCCCCCCCCCCCCC(=O)OCCN(CCOC(=O)CCCCCCCCCCCCC)C(=O)CCN(C)C [i-Et-DC, ((3-(dimethylamino)propanoyl)azanediyl)bis(ethane-2,1-diyl) ditetradecanoate] |  | 65 | 
CCCCCCCCCCCCCC(=O)OCCN(CCOC(=O)CCCCCCCCCCCCC)C(=O)OCCCN(C)C [CB104, (((3-(dimethylamino)propoxy)carbonyl)azanediyl)bis(ethane-2,1-diyl) ditetradecanoate] | 42 |  | 
CCCCCCCC/C=C\CCCCCCCC(=O)OCCN(CCOC(=O)CCCCCCC/C=C\CCCCCCCC)C(=O)CSCCN(C)C [S104-DO, (Z)-((2-((2-(dimethylamino)ethyl)thio)acetyl)azanediyl)bis(ethane-2,1-diyl) dioleate] | 78 |  | in vivo (rat DMNQ) % KD (gp46 mRNA; @ 0.5 mpk): 65% @ 0.5 mpk
CCCCCCCCCCCCCC(=O)OCCN(CCOC(=O)CCCCCCCCCCCCC)C(=O)SCCN(C)C [TU104, ((((2-(dimethylamino)ethyl)thio)carbonyl)azanediyl)bis(ethane-2,1-diyl) ditetradecanoate] | 76 |  | 
CCCCCCCCCCCCCC(=O)OCCN(CCOC(=O)CCCCCCCCCCCCC)C(=O)CSCCN(C)C [Lipid S104, ((2-((2-(dimethylamino)ethyl)thio)acetyl)azanediyl)bis(ethane-2,1-diyl) ditetradecanoate] |  | 68 | % viability (HepG2 cells): 52%; in vivo (rat DMNQ) % KD (gp46 mRNA; @ 0.5 mpk): 52% @ 0.5 mpk
CCCCCCCC/C=C\CCCCCCCC(=O)OCCN(CCOC(=O)CCCCCCC/C=C\CCCCCCCC)C(=O)CCCN(C)C [i-Prop- DODC, (Z)-((4-(dimethylamino)butanoyl)azanediyl)bis(ethane-2,1-diyl) dioleate] | 27 | 55 | 
CCCCCCCCCCCCCC(=O)OCCN(CCOC(=O)CCCCCCCCCCCCC)C(=O)c1ccc(CN(C)C)s1 [Lipid T104, ((5-((dimethylamino)methyl)thiophene-2-carbonyl)azanediyl)bis(ethane-2,1-diyl) ditetradecanoate] | 58 |  | 
